Read-outs that look alike come from different tables or passages of the source. Square brackets hold non-standard residues; d marks the D form. Peptide text beside a SMILES is read from it. * marks the point of attachment. Hexanoyl = CCCCCC(=O)*; Ahx = NCCCCCC(=O)O
Assays:
[1] = test system: Rat primary cortical neuron cultures; assay: Neuroprotection of rat primary cortical neurons against neurotoxic insults (Cell Titer-Glo viability); type: cell-based
Text: HGF/MET signaling activation is expected to protect cells, including neurons, from cell death. […] Hydrogen peroxide (H2O2) treatment produces toxic oxidative stress. Bacteria-derived lipopolysaccharide (LPS) treatment induces inflammatory cell death. Treatment with excess glutamate (Glut) produces excitotoxicity in neuron cultures. Treatment with 1-methyl-4-phenylpyridinium (MPP^+) causes cell death by inhibition of mitochondrial function.
Cells were then subjected to individual conditional insults for 24 hours at the following concentrations: H2O2 at 1 uM, LPS at 1 uM, glutamate at 25 uM, or MPP+ at 500 uM. All treatments contained recombinant human HGF (R&D Systems) at a concentration of 5 ng/ml. MK-801 (Dizocilpine) is a pore blocker of the N-Methyl-D-aspartate (NMDA) receptor, a glutamate receptor, and was used as a positive control.
Data was normalized to DMSO+HGF control set at 100% cell viability.
Data are reported as statistical significance vs. insult control, with NS=not significant, +=p<0.05, ++=p<0.01, and +++=p<0.001.

[2] = test system: THP-1-differentiated macrophages; assay: Pro-inflammatory cytokines in supernatants of LPS-challenged THP-1-differentiated macrophages; type: cell-based, human; design: key to Significant reduction in pro-inflammatory cytokine expression: IL-6 / Significant reduction in pro-inflammatory cytokine expression: TNF-α / Significant reduction in pro-inflammatory cytokine expression: IL-1β: “NS” indicates a non-significant reduction in the indicated cytokine; “+” indicates a p value <0.05 in Tukey post test; “++” indicates a p value <0.01 in Tukey post test; settings: for Expression of IL-1β and TNF-α (result in words) / Expression of IL-6 (result in words): at at least one tested dose; for Significant reduction in pro-inflammatory cytokine expression: IL-1β / Significant reduction in pro-inflammatory cytokine expression: IL-6 / Significant reduction in pro-inflammatory cytokine expression: TNF-α: LPS 24 hrs
Text: Neuroinflammation plays a crucial role in disease progression and is a complex phenomenon involving various cells that affect many extra- and intracellular signaling pathways and cytokine production. The macrophage of the brain (microglia) is the main agent of innate immunity in the CNS and performs various functions, including neuroprotection, in response to inflammatory signals. Activated microglia participate in developing neuroinflammation, responding to toxic exogenous substances (like LPS) or endogenous substances (like amyloid-beta). Here, THP-1 cells were used as an in-vitro cell model to evaluate mechanisms relevant to CNS inflammation. Differentiation with phorbol-12-myristate-13-acetate (PMA) causes THP-1 monocyte cells to acquire functional and morphological resemblance to macrophages. LPS interacts with THP-1 differentiated macrophage through the toll-like receptor 4, triggering the inflammatory response and stimulating pro-inflammatory cytokine release and eventually leading to cellular death. Test compounds were investigated for whether they have anti-inflammatory effects on LPS-challenged macrophage cultures. THP-1-differentiated macrophages were treated with test compounds for 20 minutes, followed by 24 hrs of LPS challenge. Culture supernatants were then collected to analyzed for the presence of pro-inflammatory cytokines: interleukin 1β (IL--1β), interleukin 6 (IL-6) and tumor necrosis factor α (TNF-α).
Cytokine quantification in cell culture supernatants was accomplished by homogeneous time resolved fluorescence (HTRF) kits to assess levels of IL-1β (Human IL-1β kit, #62HIL1BPEG, Cisbio) and IL-6 (Human IL-6 kit, 62HILO6PET, Cisbio), and by ELISA (Human TNF-α ELISA kit, KHC3011, ThermoFisher) to determine the levels of TNF-α.
Data analysis was performed via 1-way ANOVA with Tukey post-test compared to LPS treatment cultures using Prism statistical software (GraphPad). Tabular data indicates significance of reduction in culture supernatants for the indicated analyte at the indicated dose.

[3] = test system: Rat primary cortical neuron cultures; assay: Neuroprotection of rat cortical neurons against LPS challenge (Cell Titer-Glo); settings: for Protection of primary neurons from LPS-stimulated inflammatory toxicity (in words): at at least one dose tested; for Significance of neuroprotection vs 1 uM LPS: LPS 24 h
Experimental: (§1) To assess the neuroprotective effect of compound treatment against inflammatory insult, primary cultured cortical neurons were subjected to lipopolysaccharide (LPS) treatment for 24h along with various compound doses of compounds of Formula (I) or Compound A19. […] Rat primary cortical neuron cultures were grown at 37° C., 5% C02 in Complete Neurobasal Medium supplemented with B27/GDNF/BDNF containing 10% FBS until maturity. 25 μl of culture volume were seeded in a 384-well plate at 5,000 cells/well, and treated with 1 μM, 100 nM, 10 nM, 1 nM, or 0.1 nM of test compound for 15 minutes. Cells were then subjected to 1 μM LPS challenge for 24 hours. Luminescence measurements to assess relative levels of ATP were performed on an Envision plate reader (Perkin Elmer). Data for DMSO control were set to 100% cell viability, and each group (n=4) were averaged and presented as mean±SEM.

[4] = test system: Rat primary cortical neuron cultures; settings: LPS 24 h
Experimental: as §1

SMILES: CCCCCC(=O)N[C@@H](Cc1ccc(O)cc1)C(=O)N[C@H](C(=O)NCCCCCC(N)=O)[C@@H](C)CC [Compound A19 active metabolite, dihexa] (Hexanoyl-Tyr-Ile-[Ahx]-NH2)
- Statistical significance vs. insult control (cell viability) ([1]; Glutamate (25 uM) insult, [Compound A19 active metabolite] 0.1 nM + HGF (5 ng/ml)): + (+ = p < 0.05)
- Statistical significance vs. insult control (cell viability) ([1]; Glutamate (25 uM) insult, [Compound A19 active metabolite] 1 nM + HGF (5 ng/ml)): ++ (++ = p < 0.01)
- Statistical significance vs. insult control (cell viability) ([1]; Glutamate (25 uM) insult, [Compound A19 active metabolite] 100 nM (second column headed 100 nM) + HGF (5 ng/ml)): + (+ = p < 0.05)
- Statistical significance vs. insult control (cell viability) ([1]; Glutamate (25 uM) insult, [Compound A19 active metabolite] 100 nM + HGF (5 ng/ml)): + (+ = p < 0.05)
- Statistical significance vs. insult control (cell viability) ([1]; H2O2 (1 uM) insult, [Compound A19 active metabolite] 0.1 nM + HGF (5 ng/ml)): +++ (+++ = p < 0.001)
- Statistical significance vs. insult control (cell viability) ([1]; H2O2 (1 uM) insult, [Compound A19 active metabolite] 1 nM + HGF (5 ng/ml)): +++ (+++ = p < 0.001)
- Statistical significance vs. insult control (cell viability) ([1]; H2O2 (1 uM) insult, [Compound A19 active metabolite] 100 nM (second column headed 100 nM) + HGF (5 ng/ml)): +++ (+++ = p < 0.001)
- Statistical significance vs. insult control (cell viability) ([1]; H2O2 (1 uM) insult, [Compound A19 active metabolite] 100 nM + HGF (5 ng/ml)): +++ (+++ = p < 0.001)
- Statistical significance vs. insult control (cell viability) ([1]; H2O2 (1 uM) insult, [Compound A19 active metabolite] 1 uM + HGF (5 ng/ml)): +++ (+++ = p < 0.001)
- Neuroprotection against the cohort of insults (result in words) ([1]; H2O2, glutamate, LPS, MPP+, broad range of concentrations): effective neuroprotective treatment at a broad range of concentrations against the entire cohort of insults tested
- Statistical significance vs. insult control (cell viability) ([1]; LPS (1 uM) insult, [Compound A19 active metabolite] 0.1 nM + HGF (5 ng/ml)): ++ (++ = p < 0.01)
- Statistical significance vs. insult control (cell viability) ([1]; LPS (1 uM) insult, [Compound A19 active metabolite] 1 nM + HGF (5 ng/ml)): ++ (++ = p < 0.01)
- Statistical significance vs. insult control (cell viability) ([1]; LPS (1 uM) insult, [Compound A19 active metabolite] 100 nM (second column headed 100 nM) + HGF (5 ng/ml)): +++ (+++ = p < 0.001)
- Statistical significance vs. insult control (cell viability) ([1]; LPS (1 uM) insult, [Compound A19 active metabolite] 100 nM + HGF (5 ng/ml)): ++ (++ = p < 0.01)
- Statistical significance vs. insult control (cell viability) ([1]; LPS (1 uM) insult, [Compound A19 active metabolite] 1 uM + HGF (5 ng/ml)): ++ (++ = p < 0.01)
- Statistical significance vs. insult control (cell viability) ([1]; MPP+ (500 uM) insult, [Compound A19 active metabolite] 0.1 nM + HGF (5 ng/ml)): +++ (+++ = p < 0.001)
- Statistical significance vs. insult control (cell viability) ([1]; MPP+ (500 uM) insult, [Compound A19 active metabolite] 1 nM + HGF (5 ng/ml)): +++ (+++ = p < 0.001)
- Statistical significance vs. insult control (cell viability) ([1]; MPP+ (500 uM) insult, [Compound A19 active metabolite] 100 nM (second column headed 100 nM) + HGF (5 ng/ml)): +++ (+++ = p < 0.001)
- Statistical significance vs. insult control (cell viability) ([1]; MPP+ (500 uM) insult, [Compound A19 active metabolite] 100 nM + HGF (5 ng/ml)): +++ (+++ = p < 0.001)
- Statistical significance vs. insult control (cell viability) ([1]; MPP+ (500 uM) insult, [Compound A19 active metabolite] 1 uM + HGF (5 ng/ml)): +++ (+++ = p < 0.001)
- Expression of IL-1β and TNF-α (result in words) [2]: significantly reduced
- Expression of IL-6 (result in words) [2]: significantly reduced
- Significant reduction in pro-inflammatory cytokine expression: IL-1β ([2]; dose 0.1 nM): NS
- Significant reduction in pro-inflammatory cytokine expression: IL-6 ([2]; dose 0.1 nM): NS
- Significant reduction in pro-inflammatory cytokine expression: TNF-α ([2]; dose 0.1 nM): NS
- Significant reduction in pro-inflammatory cytokine expression: IL-1β ([2]; dose 10 nM): ++ (“++” indicates a p value <0.01 in Tukey post test)
- Significant reduction in pro-inflammatory cytokine expression: IL-6 ([2]; dose 10 nM): + (“+” indicates a p value <0.05 in Tukey post test)
- Significant reduction in pro-inflammatory cytokine expression: TNF-α ([2]; dose 10 nM): + (“+” indicates a p value <0.05 in Tukey post test)
- Significant reduction in pro-inflammatory cytokine expression: IL-1β ([2]; dose 1000 nM): + (“+” indicates a p value <0.05 in Tukey post test)
- Significant reduction in pro-inflammatory cytokine expression: IL-6 ([2]; dose 1000 nM): ++ (“++” indicates a p value <0.01 in Tukey post test)
- Significant reduction in pro-inflammatory cytokine expression: TNF-α ([2]; dose 1000 nM): ++ (“++” indicates a p value <0.01 in Tukey post test)
- Protection of primary neurons from LPS-stimulated inflammatory toxicity (in words) [3]: protected primary neurons from LPS-stimulated inflammatory toxicity
- Significance of neuroprotection vs 1 uM LPS ([3]; dose 0.1 nM): +++ (+++ indicates p<0.001)
- Significance of neuroprotection vs 1 uM LPS ([3]; dose 1 nM): ++ (++ indicates p<0.01)
- Significance of neuroprotection vs 1 uM LPS ([3]; dose 10 nM): +++ (+++ indicates p<0.001)
- Significance of neuroprotection vs 1 uM LPS ([3]; dose 100 nM): ++ (++ indicates p<0.01)
- Significance of neuroprotection vs 1 uM LPS ([3]; dose 1 μM): ++ (++ indicates p<0.01)

SMILES: CCC(C)CN1CC2N(Cc3ccc(C(F)(F)F)cc3)CCC(=O)N2[C@@H](C)C1=O (stereo partly drawn) [Compound 5a]
- Expression of IL-1β and TNF-α (result in words) [2]: significantly reduced
- Expression of IL-6 (result in words) [2]: significantly reduced
- Significant reduction in pro-inflammatory cytokine expression: IL-1β ([2]; dose 0.1 nM): ++ (“++” indicates a p value <0.01 in Tukey post test)
- Significant reduction in pro-inflammatory cytokine expression: IL-6 ([2]; dose 0.1 nM): NS
- Significant reduction in pro-inflammatory cytokine expression: TNF-α ([2]; dose 0.1 nM): NS
- Significant reduction in pro-inflammatory cytokine expression: IL-1β ([2]; dose 10 nM): ++ (“++” indicates a p value <0.01 in Tukey post test)
- Significant reduction in pro-inflammatory cytokine expression: IL-6 ([2]; dose 10 nM): + (“+” indicates a p value <0.05 in Tukey post test)
- Significant reduction in pro-inflammatory cytokine expression: TNF-α ([2]; dose 10 nM): NS
- Significant reduction in pro-inflammatory cytokine expression: IL-1β ([2]; dose 1000 nM): ++ (“++” indicates a p value <0.01 in Tukey post test)
- Significant reduction in pro-inflammatory cytokine expression: IL-6 ([2]; dose 1000 nM): ++ (“++” indicates a p value <0.01 in Tukey post test)
- Significant reduction in pro-inflammatory cytokine expression: TNF-α ([2]; dose 1000 nM): + (“+” indicates a p value <0.05 in Tukey post test)
- Significance of neuroprotection vs 1 uM LPS ([4]; dose 0.1 nM): +++ (+++ indicates p<0.001)
- Significance of neuroprotection vs 1 uM LPS ([4]; dose 1 nM): +++ (+++ indicates p<0.001)
- Significance of neuroprotection vs 1 uM LPS ([4]; dose 10 nM): +++ (+++ indicates p<0.001)
- Significance of neuroprotection vs 1 uM LPS ([4]; dose 100 nM): +++ (+++ indicates p<0.001)
- Significance of neuroprotection vs 1 uM LPS ([4]; dose 1 μM): +++ (+++ indicates p<0.001)
- Protection of primary neurons from LPS-stimulated inflammatory toxicity (in words) [3]: protected primary neurons from LPS-stimulated inflammatory toxicity
